Measurements as given in US6924307B2, “Aminobutyric acid derivatives and pharmaceutical composition containing the same as active ingredient” (Ono Pharmaceutical Co., Ltd., priority 1999, dated 2005).

How the values were obtained:
Assay type in all cases: biochemical
gelatinase A = biological target: T1, gelatinase A (Homo sapiens, UniProt P08253); test: Inhibitory activity against gelatinase A (fluorogenic synthetic substrate); settings: gelatinase A from progelatinase A purified from human normal skin dermal fibroblasts (HNDF), APMA-activated; 37° C.
T1 construct: endogenous in cells; host or cells: human normal skin dermal fibroblasts (HNDF)
T1 sequence (P08253 110-660): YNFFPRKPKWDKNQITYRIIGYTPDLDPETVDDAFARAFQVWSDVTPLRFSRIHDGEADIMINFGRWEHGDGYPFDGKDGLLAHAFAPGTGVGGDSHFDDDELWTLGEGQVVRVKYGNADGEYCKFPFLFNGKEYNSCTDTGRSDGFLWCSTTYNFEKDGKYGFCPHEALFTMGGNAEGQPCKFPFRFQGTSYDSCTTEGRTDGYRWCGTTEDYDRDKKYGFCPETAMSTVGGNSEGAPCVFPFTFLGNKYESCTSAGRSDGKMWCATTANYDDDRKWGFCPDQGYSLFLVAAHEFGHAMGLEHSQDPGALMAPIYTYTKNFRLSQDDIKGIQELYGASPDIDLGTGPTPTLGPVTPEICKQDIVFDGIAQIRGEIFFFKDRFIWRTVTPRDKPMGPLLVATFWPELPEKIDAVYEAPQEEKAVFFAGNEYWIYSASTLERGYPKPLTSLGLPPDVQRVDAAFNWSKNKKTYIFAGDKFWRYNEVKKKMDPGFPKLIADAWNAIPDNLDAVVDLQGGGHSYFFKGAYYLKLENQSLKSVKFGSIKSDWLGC
Experimental: (1) Inhibitory Activity Against Gelatinase A
The progelatinase A (5 μl; in assay buffer (40 μl)) was purified from human normal skin dermal fibroblasts (HNDF). It was activated by adding thereto 10 mM of p-aminophenylmercuric acetate (APMA) (5 μl) and preincubating for 1 hour at 37° C.
A mixture of the synthetic substrate (MOCAc-Pro-Leu-Gly-A2pr(Dnp)-Ala-Arg-NH2) (130 μl; a final concentration 13.5 μM) and a solution (20 μl) with or without various concentrations of the test compound was preincubated for 5 minutes at 37° C.
The solution of activated gelatinase A (50 μl/well) was mixed with the mixture and the mixture was incubated for 15 minutes at 37° C. The enzyme reaction was started. The enzyme activity was represented by increasing value of fluorescent intensity [Ex=325 nm (Ex)/393 nm (Em)] per 1 minute. Inhibitory activity was represented by inhibitory percentage (%) per enzyme activity without the test compound.

human stromelysin = biological target: T2, human stromelysin (Homo sapiens, UniProt P08254); test: Inhibitory activity against stromelysin (synthetic substrate NFF-3, fluorescence); settings: APMA-activated, pH 7.5, 37° C.
T2 construct: purchased Yagai
Experimental: (3) Inhibitory Activity Against Stromelysin Method:
The mixture of human stromelysin (Yagai; 9 volume) and 10 mM p-aminophenylmercury acetate (1 volume) was activated for 20 hours at 37° C. A solution of the test compound in dimethylsulfoxide (10 μl) and 0.5 mM solution (10 μl) of 10 mM solution of the synthetic substrate NFF-3 (Mca-Arg-Pro-Lys-Pro-Val-Glu-Nva-Trp-Arg-Lys(DNP)-NH2., Nva: norvaline, Peptide Laboratory) in dimethylsulfoxide diluted by water were added to assay buffer (50 mM tris-HCl, 10 mM CaCl2, 0.05% Brij35, 0.02% NaN3 (pH 7.5)) (150 μl). Furthermore, assay buffer (30 μl) was added to the mixture. The mixture was incubated for 10 minutes at 37° C. The reaction was started by addition of a solution of the above activated stromelysin solution (50 μl). The enzyme activity was represented by increasing value of fluorescent intensity [Ex=325 nm (Ex)/393 nm (Em)] per 1 minute. Inhibitory activity was represented by inhibitory percentage (%) per enzyme activity without the test compound.

collagenase = biological target: T3, collagenase (Homo sapiens, UniProt P03956); test: Inhibitory activity against collagenase (thiopeptolide synthetic substrate, absorption at 324 nm); settings: collagenase from procollagenase purified from human normal skin dermal fibroblasts (HNDF), trypsin-activated; 26° C.
T3 construct: endogenous in cells; host or cells: human normal skin dermal fibroblasts (HNDF)
T3 sequence (P03956 100-469): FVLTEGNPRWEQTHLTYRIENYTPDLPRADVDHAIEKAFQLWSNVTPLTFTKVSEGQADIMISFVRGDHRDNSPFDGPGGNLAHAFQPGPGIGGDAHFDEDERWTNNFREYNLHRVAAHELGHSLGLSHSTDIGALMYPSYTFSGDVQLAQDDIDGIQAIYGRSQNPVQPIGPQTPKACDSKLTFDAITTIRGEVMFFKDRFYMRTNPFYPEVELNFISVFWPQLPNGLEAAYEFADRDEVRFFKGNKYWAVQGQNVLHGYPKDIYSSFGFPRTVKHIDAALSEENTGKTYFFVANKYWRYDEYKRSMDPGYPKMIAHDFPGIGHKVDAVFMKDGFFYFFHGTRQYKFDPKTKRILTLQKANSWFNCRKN
Experimental: (2) Inhibitory Activity Against Collagenase Method:
The procollagenase (5 μl; in assay buffer (105 μl)) was purified from human normal skin dermal fibroblasts (HNDF). It was activated by adding thereto 1 mg/ml Trypsin (45 μl) and preincubating for 1 minute at 37° C. Trypsin was inactivated by addition of 5 mg/ml soybean trypsin inhibitor (SBTI; 50 μl).
A mixture of the synthetic substrate (Ac-Pro-Leu-Gly-[2-mercapto-4-methyl-pentanoyl]-Leu-Gly-OEt) (105 μl; a final concentration 1.33 mM) and a solution (20 μl) with or without various concentrations of the test compound was preincubated for 5 minutes at 26° C.
The solution of activated enzyme (75 μl /tube, 50 μl) was mixed with the mixture and the mixture was incubated for 10 minutes at 26° C.
Absorption at 324 nm was measured 40 points in the course of 10 minutes. Vmax value was determined as measured value in 30 points therein.

T2 sequence (P08254 100-477): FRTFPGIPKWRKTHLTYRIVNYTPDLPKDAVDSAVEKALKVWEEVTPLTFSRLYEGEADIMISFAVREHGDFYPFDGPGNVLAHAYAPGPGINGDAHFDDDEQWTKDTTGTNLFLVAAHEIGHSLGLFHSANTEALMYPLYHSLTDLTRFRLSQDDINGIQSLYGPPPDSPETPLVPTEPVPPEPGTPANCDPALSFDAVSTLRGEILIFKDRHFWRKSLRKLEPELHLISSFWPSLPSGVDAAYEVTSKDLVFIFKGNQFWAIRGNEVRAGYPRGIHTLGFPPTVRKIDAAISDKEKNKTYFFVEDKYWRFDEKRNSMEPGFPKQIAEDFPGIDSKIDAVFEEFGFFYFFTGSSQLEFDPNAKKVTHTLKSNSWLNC

| Compound | IC50 (gelatinase A) | IC50 (human stromelysin) | IC50 (collagenase) |
| --- | --- | --- | --- |
| CCOCOC[C@H](C[C@H](COC)C(=O)NO)NC(=O)c1ccc(Oc2ccccc2)cc1 [8(6), N-hydroxy-5-ethoxymethoxy-2(R)-methoxymethyl-4(S)-[N-(4-phenoxyphenylcarbonyl)amino]pentanamide] | 1.7 nM | 29 nM |  |
| CCOCOC[C@H](C[C@H](COC)C(=O)NO)NC(=O)c1ccc(-c2ccco2)cc1 [8(7), N-hydroxy-5-ethoxymethoxy-2(R)-methoxymethyl-4(S)-[N-(4-(2-furyl)phenylcarbonyl)amino]pentanamide] |  | 40 nM |  |
| CN(C(=O)c1ccc(Br)cc1)[C@H](CO)C[C@H](CCCc1ccccc1)C(=O)NO [16(2), N-hydroxy-2(S)-(3-phenylpropyl)-5-hydroxy-4(S)-[N-methyl-N-(4-bromophenylcarbonyl)amino]pentanamide] | 4.2 nM |  |  |
| C#CCOC[C@@H](C[C@@H](COCOCC)NC(=O)c1ccc(Cl)cc1)C(=O)NO [20(3), N-hydroxy-5-ethoxymethoxy-2(R)-(2-propynyloxymethyl)-4(S)-[N-(4-chlorophenylcarbonyl)amino]pentanamide] |  |  | 6.8 nM |
| C#CC[C@@H](C[C@@H](CO)N(C)C(=O)c1ccc(Br)cc1)C(=O)NO [21(2), N-hydroxy-2(S)-(2-propynyl)-5-hydroxy-4(S)-[N-methyl-N-(4-bromophenylcarbonyl)amino]pentanamide] |  |  | 7.6 nM |
| CCOCOC[C@H](C[C@H](COC)C(=O)NO)NC(=O)c1ccc(C#N)cc1 [compound 8] |  |  | 14 nM |
